Source: US10399987B2, “TGF beta receptor antagonists” (BRISTOL-MYERS SQUIBB COMPANY, priority 2015, dated 2019)

Target: HIS-TGFβR1 T204D (Homo sapiens (Human), UniProt P36897, T204D)
Test: TGFβR1 HIS T204D HTRF assay (labeled small molecule probe, anti-HIS detection antibody)
Type: binding
Conditions: 1 nM HIS-TGFβR1 T204D, probe at Kd, 1 hour at room temperature, eleven concentrations

Sequence of HIS-TGFβR1 T204D (P36897 34-503 T204D): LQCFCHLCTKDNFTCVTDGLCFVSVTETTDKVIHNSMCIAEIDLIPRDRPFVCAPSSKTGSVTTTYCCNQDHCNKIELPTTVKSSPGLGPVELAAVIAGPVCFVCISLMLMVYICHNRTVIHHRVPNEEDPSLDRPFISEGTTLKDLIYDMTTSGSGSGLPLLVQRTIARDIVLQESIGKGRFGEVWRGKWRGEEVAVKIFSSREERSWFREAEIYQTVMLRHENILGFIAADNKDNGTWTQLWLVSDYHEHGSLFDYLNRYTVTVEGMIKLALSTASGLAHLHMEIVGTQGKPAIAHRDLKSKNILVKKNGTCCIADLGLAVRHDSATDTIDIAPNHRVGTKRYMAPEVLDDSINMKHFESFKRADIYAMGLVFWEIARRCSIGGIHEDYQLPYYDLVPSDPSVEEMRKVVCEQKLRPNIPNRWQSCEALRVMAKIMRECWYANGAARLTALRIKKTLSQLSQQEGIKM

Row | SMILES | IC50 [nM]
1 | Cc1cnccc1Nc1nc(-c2ccc(F)c(C)n2)nc2[nH]ccc12 [Example 45, N-[2-(5-fluoro-6-methylpyridin-2-yl)-7H-pyrrolo[2,3-d]pyrimidin-4-yl]-3-methylpyridin-4-amine] | 1
2 | COc1cnccc1Nc1nc(-c2ccc(F)c(C)n2)nc2[nH]ccc12 [Example 46, N-[2-(5-fluoro-6-methylpyridin-2-yl)-7H-pyrrolo[2,3-d]pyrimidin-4-yl]-3-methoxypyridin-4-amine] | 0.79
3 | Cc1nc(-c2nc(Nc3ccnc(NC(=O)C4CC4)c3)c3cc[nH]c3n2)ccc1F [Example 47, N-(4-{[2-(5-fluoro-6-methylpyridin-2-yl)-7H-pyrrolo[2,3-d]pyrimidin-4-yl]amino}pyridin-2-yl)cyclopropanecarboxamide] | 1.4
4 | CN(c1ccncc1)c1nc(-c2cccc(NS(C)(=O)=O)n2)nc2[nH]ccc12 [Example 48, N-(6-{4-[methyl(pyridin-4-yl)amino]-7H-pyrrolo[2,3-d]pyrimidin-2-yl}pyridin-2-yl)methanesulfonamide] | 4.3
5 | CS(=O)(=O)Nc1cccc(-c2nc(Nc3ccncc3Cl)c3cc[nH]c3n2)n1 [Example 49, N-(6-{4-[(3-chloropyridin-4-yl)amino]-7H-pyrrolo[2,3-d]pyrimidin-2-yl}pyridin-2-yl)methanesulfonamide] | 2.2
